In patent US10047063B2, “Method for improving the oxygen-releasing ability of hemoglobin to organs or peripheral tissues in human bodies and a medication thereof” (NATIONAL SUN YAT-SEN UNIVERSITY, priority 2014, dated 2018):

Experiments:
Format in all cases: biochemical
[1] = target: fetal hemoglobin (α2γ2, HbF) (Homo sapiens, UniProt P69905); assay: Resonance Raman spectroscopy: percentage of "R" state of oxygenated fetal hemoglobin treated with compounds; conditions: oxygen atmosphere
From the text: In order to evaluate the effect of the compound of phthalides on stabilizing the oxygenated hemoglobin variants in the low oxygen affinity “T” state, compounds including 2,3-bisphosphoglycerate (group A0), Z-butylidenephthalide (group A1), Z-ligustilide (group A2), senkyunolide A (group A3), senkyunolide H (group A4) and senkyunolide I (group A5) are mixed with fetal hemoglobin (α2γ2, HbF) as a representative hemoglobin variant which is also a potential hemoglobin-based blood substitute, followed by the resonance Raman spectroscopy measurements under the oxygen atmosphere. The percentages of the high oxygen affinity “R” state of fetal hemoglobin treated with 2,3-bisphosphoglycerate (shown in FIG. 3a) and various phthalide phyto-compounds (shown in FIGS. 3b to 3f) are also analyzed from the resonance Raman spectroscopy measurements, following the same spectral analysis procedures as that of normal hemoglobin.

hemoglobin [2] = target: T1, hemoglobin (Homo sapiens, UniProt P68871+P69905); assay: Oxygen equilibrium curve (OEC) measurement, P50 of treated hemoglobin
From the text: FIG. 4a is a diagram illustrating the oxygen equilibrium curve (OEC) of hemoglobin treated with 2,3-bisphosphoglycerate with a molar ratio to Hb of 1.0 (dash black curve). The OEC of pure hemoglobin (solid black curve) is also shown as the reference. The P50 value derived from the OEC for pure hemoglobin and for Hb treated with 2,3-bisphosphoglycerate are 12.6 and 16.4±1 mmHg, respectively.
To evaluate the effect of the compound of phthalides on reducing the oxygen affinity and thus promoting the oxygen release, the oxygen equilibrium curves (OEC) for hemoglobin treated with 2,3-bisphosphoglycerate (solid black curve in FIG. 4a) and Z-butylidenephthalide (Z-butylidenephthalide-to-Hb molar ratio of: 0.2, solid black curve; 0.5, dash-dot black curve; 0.8, dot black curve in FIG. 4b), are measured in comparison with that of pure hemoglobin (dash black curves in FIGS. 4a and 4b).
From the oxygen equilibrium measurements, the P50 values of hemoglobin treated compounds, including Z-butylidenephthalide, Z-ligustilide and senkyunolide A are obtained, as shown in FIGS. 5a to 5c. P50, defined as the oxygen partial pressure required for 50% of Hb to become oxygenated or deoxygenated, is a direct measure of oxygen affinity for hemoglobin, which increases with decreasing oxygen affinity.

hemoglobin [3] = target: T1, hemoglobin; assay: Resonance Raman spectroscopy: percentage of high oxygen affinity "R" state of oxygenated hemoglobin treated with compounds; conditions: varying mole ratio to Hb tetramer, 532 nm excitation, oxygen atmosphere
From the text: In order to evaluate the effect of the compound of Formula I on stabilizing the oxygenated hemoglobin in the low oxygen affinity “T” state, compounds including 2,3-bisphosphoglycerate (group A0), Z-butylidenephthalide (group A1), Z-ligustilide (group A2), senkyunolide A (group A3), senkyunolide H (group A4) and senkyunolide I (group A5) are mixed with hemoglobin as a function of their mole ratio to hemoglobin, followed by the resonance Raman spectroscopy measurements at 532 nm excitation wavelength under the oxygen atmosphere. The percentages of the high oxygen affinity “R” state for hemoglobin treated with 2,3-bisphosphoglycerate (shown in FIG. 2a, as reference) and various phthalide phyto-compounds (shown in FIGS. 2b to 2f) are analyzed from the resonance Raman spectroscopy measurements. In more specific, the percentage of high oxygen affinity “R” state for each treated hemoglobin was obtained by fitting a simulated spectrum comprised of adjustable weighing factors of the T and R states of pure hemoglobin to the obtained resonance Raman spectrum of treated hemoglobin. […]

[4] = effector-to-Hb mole ratio of 0.8 (Level II), pure hemoglobin 12.6±1

T1 sequence (P69905 2-142 limits assumed): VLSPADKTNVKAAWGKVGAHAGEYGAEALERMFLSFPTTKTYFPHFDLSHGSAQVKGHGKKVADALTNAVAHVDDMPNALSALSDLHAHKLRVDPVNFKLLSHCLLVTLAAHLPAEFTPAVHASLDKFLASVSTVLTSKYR
T1 sequence (P68871 2-147 limits assumed): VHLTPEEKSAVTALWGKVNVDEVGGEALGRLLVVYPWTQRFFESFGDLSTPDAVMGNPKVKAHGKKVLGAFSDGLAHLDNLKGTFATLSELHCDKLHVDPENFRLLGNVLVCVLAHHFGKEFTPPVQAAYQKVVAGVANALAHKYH
fetal hemoglobin (α2γ2, HbF), sequence (P69905 2-142 limits assumed): as the sequence (P69905 2-142 limits assumed) above
fetal hemoglobin (α2γ2, HbF), sequence (P69892 2-147 partner limits assumed): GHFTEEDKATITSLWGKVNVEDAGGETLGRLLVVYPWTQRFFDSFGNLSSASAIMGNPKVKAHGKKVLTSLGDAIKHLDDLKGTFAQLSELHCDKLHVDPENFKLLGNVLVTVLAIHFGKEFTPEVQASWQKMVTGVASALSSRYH

P50 of hemoglobin treated with compound (hemoglobin [2]; molar ratio to Hb of 1.0, pure hemoglobin 12.6) | "R" state suppression efficiency (hemoglobin [3]) | SMILES | effect on relative ratio of high oxygen affinity "R" state of fetal hemoglobin [1] | P50 of hemoglobin treated with compound (hemoglobin [2]; [4])
 |  | CCC/C=C1\OC(=O)C2=C1CCC=C2 [Z-ligustilide] | can stabilize the low oxygen affinity “T” state | 15.9 mmHg
 |  | CCCC[C@@H]1OC(=O)C2=C1CCC=C2 [senkyunolide A] | can stabilize the low oxygen affinity “T” state | 
 |  | CCC/C=C1\OC(=O)c2ccccc21 [Z-butylidenephthalide] | can stabilize the low oxygen affinity “T” state | 17.4 mmHg
16.4±1 mmHg | about 20% | O=C(O)C(COP(=O)(O)O)OP(=O)(O)O (centres unmarked) [2,3-bisphosphoglycerate, reference compound] | no effect | 
 |  | CCC/C=C1\OC(=O)C2=C1CC[C@@H](O)[C@H]2O [senkyunolide H] | can stabilize the low oxygen affinity “T” state | 
 |  | CCC/C=C1\OC(=O)C2=C1CC[C@@H](O)[C@@H]2O [senkyunolide I] | can stabilize the low oxygen affinity “T” state | 15.2±1 mmHg
